Test systems include HCT-15; U-251; COLO 205; Malme-3M; A549; SK-OV-3; DU-145; RPMI-8226; SK-MEL-28; SN12C; CCRF-CEM; TK-10; 786-0; T47D; SF-539; MCF7; BT-549; UACC-62; RXF 393; IGROV-1.
Holding throughout (experiment): NCI anticancer screen, dose series, 48 h

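These data come from cells grown in 96-well plates and exposed to compound for 48 hours at five concentrations. GI50 marks 50% less growth.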 The source made the active and inactive calls. Cut-off read from the data, not from the text of the source: active = GI50 up to about 1.1 µM and inactive = higher. Where a SMILES comes first, the peptide text is derived from it. The star is where a group is joined. Boc = CC(C)(C)OC(=O)*; OBn = c1ccc(CO*)cc1

For `COc1cc2c(cc1OC)C(=O)N(c1ccc(OCCN3CCCC3)cc1)C2`, the GI50 in the assay on HCT-15 is > 100 µM; in the assay with U-251, > 100 µM (inactive); in the assay on COLO 205, > 100 µM (inactive); with Malme-3M it was > 100 µM (inactive); in the assay with A549, > 100 µM (inactive); with SK-OV-3, > 100 µM (inactive). For the same molecule, the GI50 with DU-145, in the assay with RPMI-8226, in the assay with SK-MEL-28, in the assay on SN12C, with CCRF-CEM and in the assay on TK-10 was > 100 µM (inactive) in each case. Also, the GI50 with 786-0, with T47D, in the assay on SF-539, in the assay on MCF7, in the assay on BT-549 and in the assay on UACC-62 was > 100 µM (inactive) each time. The GI50 with RXF 393 and in the assay on IGROV-1 was > 100 µM (inactive) each time.
For `CC(C)CC(NC(=O)C(Cc1ccccc1)NC(=O)C(Cc1ccccc1)NC(=O)OC(C)(C)C)C(=O)OCc1ccccc1` (stereo not drawn) (Boc-Phe-Phe-Leu-OBn; configuration not given here), the GI50 is > 100 µM with HCT-15; > 100 µM (inactive) in the assay on U-251; > 100 µM (inactive) in the assay with COLO 205; > 100 µM (inactive) in the assay on Malme-3M; > 100 µM (inactive) in the assay with A549; > 100 µM (inactive) in the assay on SK-OV-3. For the same molecule, the GI50 in the assay on DU-145, in the assay on RPMI-8226, in the assay on SK-MEL-28, in the assay on SN12C, with CCRF-CEM and with TK-10 was > 100 µM (inactive) in each case. Besides, the GI50 in the assay with 786-0, in the assay with T47D, in the assay on SF-539, with MCF7, in the assay with BT-549 and with UACC-62 was > 100 µM (inactive) in each case. For the same molecule, the GI50 with RXF 393 and with IGROV-1 was > 100 µM (inactive) in each case.
`CC[C@]12CCCN3CCc4c(n(c5ccccc45)C(=O)C1)[C@@H]32` [VINBURNINE]: the GI50 in the assay on HCT-15 is 4.15 µM; in the assay on U-251, 4.88 µM (inactive); in the assay with COLO 205, 4.43 µM (inactive); in the assay with Malme-3M, 4.63 µM (inactive); in the assay on A549 it was 7.5 µM (inactive); in the assay with SK-OV-3, 10.8 µM (inactive). Further, the GI50 is 19.2 µM (inactive) in the assay with DU-145; 4.56 µM (inactive) in the assay on RPMI-8226; > 36.5 µM (inactive) in the assay with SK-MEL-28; 12.9 µM (inactive) in the assay with SN12C; 1.31 µM (inactive) in the assay with CCRF-CEM; 12.5 µM (inactive) with TK-10. Also, the GI50 was 10.1 µM (inactive) in the assay with 786-0; 11.5 µM (inactive) with T47D; 7.91 µM (inactive) with SF-539; 3.51 µM (inactive) in the assay with MCF7; 24.7 µM (inactive) in the assay with BT-549; 5.82 µM (inactive) in the assay on UACC-62. Moreover, the GI50 in the assay with RXF 393 was 15.6 µM (inactive); in the assay on IGROV-1 it was 5.85 µM (inactive).
